Laboratory results reported in the NIST ThermoML archive (doi:10.1021/acs.jced.9b00536).
± gives the expanded uncertainty stated by the source.

Experiment: refractive index (Na D-line) (dimensionless); wn = mass fraction of the nth substance listed
Details: 100 kPa, Liquid, Standard Abbe refractometry

[Na+].[OH-] [sodium hydroxide] + O
refractive index
Details	308.15 K	313.15 K	318.15 K	323.15 K	328.15 K	333.15 K
w1 = 0.2	–	1.3801 ± 0.002	1.3795 ± 0.002	1.3788 ± 0.002	1.3788 ± 0.002	1.3794 ± 0.002
w1 = 0.21	–	1.3825 ± 0.002	1.3819 ± 0.002	1.3815 ± 0.002	1.381 ± 0.002	1.3812 ± 0.002
w1 = 0.22	–	1.3851 ± 0.002	1.3847 ± 0.002	1.3844 ± 0.002	1.3836 ± 0.002	1.3835 ± 0.002
w1 = 0.23	–	1.3866 ± 0.002	1.3858 ± 0.002	1.3853 ± 0.002	1.3852 ± 0.002	1.3857 ± 0.002
w1 = 0.24	–	1.3886 ± 0.002	1.3877 ± 0.002	1.3869 ± 0.002	1.3862 ± 0.002	1.3847 ± 0.002
w1 = 0.25	–	1.3917 ± 0.002	1.391 ± 0.002	1.3904 ± 0.002	1.39 ± 0.002	1.3894 ± 0.002
w1 = 0.26	–	1.3938 ± 0.002	1.3931 ± 0.002	1.3926 ± 0.002	1.3922 ± 0.002	1.3915 ± 0.002
w1 = 0.27	–	1.3955 ± 0.002	1.3946 ± 0.002	1.3937 ± 0.002	1.3929 ± 0.002	1.3923 ± 0.002
w1 = 0.28	–	1.3975 ± 0.002	1.3968 ± 0.002	1.3961 ± 0.002	1.3953 ± 0.002	1.3941 ± 0.002
w1 = 0.29	–	1.3999 ± 0.002	1.3989 ± 0.002	1.3981 ± 0.002	1.397 ± 0.002	1.3964 ± 0.002
w1 = 0.3	–	1.4011 ± 0.002	1.4002 ± 0.002	1.3994 ± 0.002	1.3986 ± 0.002	1.3977 ± 0.002
w1 = 0.31	–	1.4033 ± 0.002	1.4024 ± 0.002	1.4016 ± 0.002	1.4008 ± 0.002	1.3998 ± 0.002
w1 = 0.32	–	1.4044 ± 0.002	1.4036 ± 0.002	1.4025 ± 0.002	1.4018 ± 0.002	1.4008 ± 0.002
w1 = 0.33	–	1.4061 ± 0.002	1.4051 ± 0.002	1.4042 ± 0.002	1.4033 ± 0.002	1.4024 ± 0.002
w1 = 0.34	–	1.4086 ± 0.002	1.4077 ± 0.002	1.4068 ± 0.002	1.4058 ± 0.002	1.4048 ± 0.002
w1 = 0.35	1.4114 ± 0.002	1.4105 ± 0.002	1.4095 ± 0.002	1.4085 ± 0.002	1.4076 ± 0.002	1.4066 ± 0.002
w1 = 0.36	1.413 ± 0.002	1.4121 ± 0.002	1.4111 ± 0.002	1.4102 ± 0.002	1.4093 ± 0.002	1.4083 ± 0.002
w1 = 0.37	1.4145 ± 0.002	1.4136 ± 0.002	1.4126 ± 0.002	1.4117 ± 0.002	1.4107 ± 0.002	1.4098 ± 0.002
w1 = 0.38	1.4163 ± 0.002	1.4154 ± 0.002	1.4145 ± 0.002	1.4135 ± 0.002	1.4126 ± 0.002	1.4116 ± 0.002
w1 = 0.39	1.418 ± 0.002	1.417 ± 0.002	1.416 ± 0.002	1.4151 ± 0.002	1.4142 ± 0.002	1.4133 ± 0.002
w1 = 0.4	1.4196 ± 0.002	1.4186 ± 0.002	1.4177 ± 0.002	1.4167 ± 0.002	1.4159 ± 0.002	1.415 ± 0.002
w1 = 0.41	1.4206 ± 0.002	1.4196 ± 0.002	1.4186 ± 0.002	1.4177 ± 0.002	1.4167 ± 0.002	1.4159 ± 0.002
w1 = 0.42	1.4221 ± 0.002	1.4212 ± 0.002	1.4202 ± 0.002	1.4192 ± 0.002	1.4183 ± 0.002	1.4174 ± 0.002
w1 = 0.43	1.4236 ± 0.002	1.4226 ± 0.002	1.4217 ± 0.002	1.4207 ± 0.002	1.4198 ± 0.002	1.4189 ± 0.002
w1 = 0.44	1.4245 ± 0.002	1.4235 ± 0.002	1.4226 ± 0.002	1.4217 ± 0.002	1.4208 ± 0.002	1.4198 ± 0.002
w1 = 0.45	1.4258 ± 0.002	1.425 ± 0.002	1.4239 ± 0.002	1.423 ± 0.002	1.4221 ± 0.002	1.4212 ± 0.002
w1 = 0.46	1.4275 ± 0.002	1.4266 ± 0.002	1.4256 ± 0.002	1.4247 ± 0.002	1.4238 ± 0.002	1.4229 ± 0.002
w1 = 0.47	1.4285 ± 0.002	1.4275 ± 0.002	1.4266 ± 0.002	1.4257 ± 0.002	1.4248 ± 0.002	1.4239 ± 0.002
w1 = 0.48	1.4301 ± 0.002	1.4292 ± 0.002	1.4282 ± 0.002	1.4273 ± 0.002	1.4264 ± 0.002	1.4255 ± 0.002
w1 = 0.49	1.4309 ± 0.002	1.43 ± 0.002	1.4289 ± 0.002	1.428 ± 0.002	1.4271 ± 0.002	1.4263 ± 0.002
w1 = 0.5	1.4319 ± 0.002	1.4311 ± 0.002	1.4302 ± 0.002	1.4293 ± 0.002	1.4284 ± 0.002	1.4276 ± 0.002
